Biological target: T1, HMGB1 (HMGB1-His) (Homo sapiens, UniProt P09429)
T1 sequence (P09429 1-215): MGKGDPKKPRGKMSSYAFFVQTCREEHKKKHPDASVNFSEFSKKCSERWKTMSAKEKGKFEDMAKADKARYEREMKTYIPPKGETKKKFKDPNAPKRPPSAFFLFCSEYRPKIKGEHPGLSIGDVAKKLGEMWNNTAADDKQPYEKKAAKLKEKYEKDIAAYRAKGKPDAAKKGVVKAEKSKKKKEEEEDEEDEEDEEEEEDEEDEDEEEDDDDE
Experiment: microscale thermophoresis
Format: binding

How did the Kd turn out when `CN1CCN(c2ccc(C(=O)Nc3n[nH]c4ccc(Cc5cc(F)cc(F)c5)cc34)c(NC3CCOCC3)c2)CC1` [entrectinib] was run?
The Kd was 65.5 µM.

Reference: PMC12758333 (Autophagy, 2025)
